In brackets after ≈: the same amount, converted by molar mass.
Experiments:
[1] = tested on: Mycolicibacterium smegmatis; experiment: Antimycobacterial activity was determined against Mycobacterium smegmatis SANK75075; format: functional
[2] = tested on: Mycobacterium avium; experiment: Antimycobacterial activity against Mycobacterium avium NIHJ1605; format: functional
[3] = tested on: Mycobacterium intracellulare; experiment: Antimycobacterial activity against Mycobacterium intracellular ATCC 1954 E-3; format: functional
[4] = tested on: Mycobacterium kansasii; experiment: Antimycobacterial activity against Mycobacterium kansasii ATCC 12478; format: functional
[5] = target: T1, Phospho-N-acetylmuramoyl-pentapeptide-transferase (Escherichia coli K-12, UniProt P0A6W3); experiment: Inhibitory concentration required against Translocase I
T1 sequence (P0A6W3 whole entry): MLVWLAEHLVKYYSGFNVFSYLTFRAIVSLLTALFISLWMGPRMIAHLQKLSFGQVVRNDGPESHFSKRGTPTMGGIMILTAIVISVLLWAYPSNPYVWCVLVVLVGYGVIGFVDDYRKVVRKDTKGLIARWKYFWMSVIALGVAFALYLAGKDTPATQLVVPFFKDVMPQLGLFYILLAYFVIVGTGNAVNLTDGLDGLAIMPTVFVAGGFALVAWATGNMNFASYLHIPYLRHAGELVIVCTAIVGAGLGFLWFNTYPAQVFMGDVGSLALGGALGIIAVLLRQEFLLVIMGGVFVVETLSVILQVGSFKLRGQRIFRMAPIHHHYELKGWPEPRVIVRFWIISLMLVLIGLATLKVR

[6] = target: T1, Phospho-N-acetylmuramoyl-pentapeptide-transferase; experiment: Inhibitory concentration against translocase-I

Structure (SMILES) | MIC [1] [µg/mL] | MIC [2] [µg/mL] | MIC [3] [µg/mL] | MIC [4] [µg/mL] | IC50 [5] [nM] | IC50 [6] [nM]
CCCCCO[C@@H]1[C@H](OC)[C@@H]([C@@H](O[C@H]2OC(C(=O)N[C@H]3CCC[C@@H](C)NC3=O)=C[C@H](O)[C@@H]2O)C(N)=O)O[C@H]1n1ccc(=O)[nH]c1=O | 100 (≈ 153 µM) | > 32 | 4 (≈ 6.12 µM) | > 32 | 76.5 | 
CCCCCCCCCCCCCC(=O)O[C@@H]1[C@H](OC)[C@@H]([C@@H](O[C@H]2OC(C(=O)N[C@H]3CCC[C@@H](C)NC3=O)=C[C@H](O)[C@@H]2O)C(N)=O)O[C@H]1n1ccc(=O)[nH]c1=O | 3.13 (≈ 3.94 µM) | < 0.063 | 0.125 (≈ 0.157 µM) | 4 (≈ 5.04 µM) | 5670 | 
CCCCCCC(=O)O[C@@H]1[C@H](OC)[C@@H]([C@@H](O[C@H]2OC(C(=O)N[C@H]3CCCCNC3=O)=C[C@H](O)[C@@H]2O)C(N)=O)O[C@H]1n1ccc(=O)[nH]c1=O | 25 (≈ 36.7 µM) |  |  |  |  | 58.7
CCCCCCCCCCO[C@@H]1[C@H](OC)[C@@H]([C@@H](O[C@H]2OC(C(=O)N[C@H]3CCC[C@@H](C)NC3=O)=C[C@H](O)[C@@H]2O)C(N)=O)O[C@H]1n1ccc(=O)[nH]c1=O | 25 (≈ 34.5 µM) | 1 (≈ 1.38 µM) | 4 (≈ 5.53 µM) | > 32 | 884 | 
CCCCCCC(=O)O[C@@H]1[C@H](OC)[C@@H]([C@@H](O[C@H]2OC(C(=O)N[C@H]3CCC[C@@H](C)NC3=O)=C[C@H](O)[C@@H]2O)C(N)=O)O[C@H]1n1ccc(=O)[nH]c1=O | 50 (≈ 71.9 µM) | 4 (≈ 5.75 µM) | 1 (≈ 1.44 µM) | 2 (≈ 2.87 µM) | 64.7 | 
CCCCCCCC(=O)O[C@@H]1[C@H](OC)[C@@H]([C@@H](O[C@H]2OC(C(=O)N[C@H]3CCC[C@@H](C)NC3=O)=C[C@H](O)[C@@H]2O)C(N)=O)O[C@H]1n1ccc(=O)[nH]c1=O | 25 (≈ 35.2 µM) | 2 (≈ 2.82 µM) | 1 (≈ 1.41 µM) | 1 (≈ 1.41 µM) | 268 | 
CCCCCCCO[C@@H]1[C@H](OC)[C@@H]([C@@H](O[C@H]2OC(C(=O)N[C@H]3CCC[C@@H](C)NC3=O)=C[C@H](O)[C@@H]2O)C(N)=O)O[C@H]1n1ccc(=O)[nH]c1=O | 100 (≈ 147 µM) | 32 (≈ 46.9 µM) | 4 (≈ 5.87 µM) | 32 (≈ 46.9 µM) | 80.7 | 
CCCCCCCCCC(=O)O[C@@H]1[C@H](OC)[C@@H]([C@@H](O[C@H]2OC(C(=O)N[C@H]3CCCCNC3=O)=C[C@H](O)[C@@H]2O)C(N)=O)O[C@H]1n1ccc(=O)[nH]c1=O | 12.5 (≈ 17.3 µM) | 0.5 (≈ 0.691 µM) | 0.25 (≈ 0.345 µM) | 1 (≈ 1.38 µM) |  | 414
CCCCCCCCCCCCCCCCOC(=O)O[C@@H]1[C@H](OC)[C@@H]([C@@H](O[C@H]2OC(C(=O)N[C@H]3CCC[C@@H](C)NC3=O)=C[C@H](O)[C@@H]2O)C(N)=O)O[C@H]1n1ccc(=O)[nH]c1=O | > 100 | 0.5 (≈ 0.587 µM) | 2 (≈ 2.35 µM) | 8 (≈ 9.39 µM) | > 2930 | 
CCCCCCCCCCCCCCCC(=O)O[C@@H]1[C@H](OC)[C@@H]([C@@H](O[C@H]2OC(C(=O)N[C@H]3CCC[C@@H](C)NC3=O)=C[C@H](O)[C@@H]2O)C(N)=O)O[C@H]1n1ccc(=O)[nH]c1=O | 6.25 (≈ 7.6 µM) | < 0.063 | 0.25 (≈ 0.304 µM) | 4 (≈ 4.87 µM) | 523 | 
CO[C@H]1[C@@H](O)[C@H](n2ccc(=O)[nH]c2=O)O[C@@H]1[C@@H](O[C@H]1OC(C(=O)N[C@H]2CCCCNC2=O)=C[C@H](O)[C@@H]1O)C(N)=O [CAPURAMYCIN] | 12.5 (≈ 21.9 µM) | 8 (≈ 14 µM) | 8 (≈ 14 µM) | 8 (≈ 14 µM) |  | 17.6
CCCCCCCCC(=O)O[C@@H]1[C@H](OC)[C@@H]([C@@H](O[C@H]2OC(C(=O)Nc3ccccc3)=C[C@H](O)[C@@H]2O)C(N)=O)O[C@H]1n1ccc(=O)[nH]c1=O | 12.5 (≈ 18.5 µM) | 0.25 (≈ 0.371 µM) | 1 (≈ 1.48 µM) | 1 (≈ 1.48 µM) | 1040 | 
CCCCCCCOC(=O)O[C@@H]1[C@H](OC)[C@@H]([C@@H](O[C@H]2OC(C(=O)N[C@H]3CCC[C@@H](C)NC3=O)=C[C@H](O)[C@@H]2O)C(N)=O)O[C@H]1n1ccc(=O)[nH]c1=O | 50 (≈ 68.9 µM) | 0.25 (≈ 0.344 µM) | 1 (≈ 1.38 µM) | 2 (≈ 2.76 µM) | 276 | 

— ChEMBL document CHEMBL1136175, “Synthesis and antimycobacterial activity of capuramycin analogues. Part 2: acylated derivatives of capuramycin-related compounds” (Bioorg Med Chem Lett, 2003)
